Results reported in patent US20020172974A1, “Method of screening for antimicrobial compounds” (priority 1997, published 2002).

How the values were obtained:
E. coli JM109 [pSB311] = assay: dual culture bioluminescence assay, reading before octanal substrate addition; format: cell-based; details: E. coli/S. aureus co-culture, 5 hours at 37° C., FIG. 1
Description: E. coli JM109 [pSB311] has a plasmid that contains the entire lux gene cassette (luxCDABE) from Photorhabdus luminescens. In this organism bioluminescence initiation is independent on the addition of aldehyde substrate.
E. coli JM109 was grown overnight at 37° C. in Brain Heart Infusion (BHI) broth to give approximately 1×10^9 CFU/ml.
(§1) S. aureus RN4220 [PKF1] was grown overnight at 37° C. in Brain Heart Infusion (BHI) broth containing 10 ug/ml chloramphenicol to give approximately 1×10^9 CFU/ml. The overnight cultures were diluted to give 1×10^6 CFU/ml for E. coli and 1×10^7 CFU/ml for S. aureus and 25 μl of each organism was added to each well.
(§2) Test compounds were serially diluted in BHI and 50 μl was added to each well of a 96 well microtitre plate.
(§3) The plate was incubated for 5 hours at 37° C. and bioluminescence from compound treated cells was compared with non-treated cells using a luminometer (Wallac LB96B) to give bioluminescence output for E. coli (no substrate addition).

S. aureus RN4220 [pKF1] = assay: dual culture bioluminescence assay, reading after octanal addition minus initial reading; format: cell-based; details: E. coli/S. aureus co-culture, 5 hours at 37° C., RLU after octanal minus initial reading, FIG. 3
Description: S. aureus RN4220 [pKF1] has a plasmid that contains only luxAB genes so bioluminescence is dependent on the addition of aldehyde substrate. Chloramphenicol resistance is used as a selective marker for plasmid maintenance.
as §1, §2, §3
To monitor the effect of the antibiotics on S. aureus bioluminescence 50 μl of 0.01% (v/v) octanal substrate was added to each well and bioluminescence was measured immediately after substrate addition to each individual well (Total RLU's for both E. coli and S. aureus). To obtained RLU's for S. aureus the initial RLU reading was subtracted from the reading taken immediately following substrate addition.

SMILES	concentrations required to inhibit bioluminescence (E. coli JM109 [pSB311]; no substrate addition)	activity against S. aureus (in words) (S. aureus RN4220 [pKF1])	potency against E. coli (comparison in words) (E. coli JM109 [pSB311]; compared with mupirocin)
C/C(=C\C(=O)OCCCCCCCCC(=O)O)C[C@@H]1OC[C@H](C[C@@H]2O[C@H]2[C@@H](C)[C@H](C)O)[C@@H](O)[C@H]1O [mupirocin]	greater than 64 μl/ml	potent activity	–
CC1(C)S[C@@H]2[C@H](NC(=O)[C@H](N)c3ccc(O)cc3)C(=O)N2[C@H]1C(=O)O [Amoxicillin]	–	potent activity	more potent
